SMILES	melting point
Cc1cc(Oc2cccc(C#N)n2)n(C)n1	95 °C
NC(Cc1cccc2cccc(Br)c12)=NO	123 to 125 °C
CC(Cc1c[nH]c2ccccc12)(NC(=O)OC1C2CC3CC(C2)CC1C3)C(=O)NCCc1cnccn1 (centres undefined)	97 to 101 °C
COC(=O)c1cc([N+](=O)[O-])c(C(F)(F)F)cc1N	175 to 177 °C
CCCc1c(CSc2nnc(NC(=O)C(=O)OCC)s2)ccc(C(C)=O)c1O	189 °C
CC(O)COC(c1c(C(C)C)nn2ccccc12)C(C)C (centres undefined)	112 °C
O=[N+]([O-])c1ccccc1Sc1ccncc1	119 to 122 °C
CC(C)(C)OC(=O)N[C@@H](Cc1ccccc1)C(=O)CCC(=O)N[C@@H](Cc1c[nH]c2ccccc12)C(=O)O	141 to 143 °C
O=C(c1ccc(Br)cc1)N1CCN(c2ccncc2)CC1	128 to 129 °C
CC(O)c1cc2c(s1)S(=O)(=O)CCc1cc(=O)n(-c3ccc(Cl)cc3)nc1-2 (centres undefined)	233 to 235 °C
CN1C(=O)N(C)S(=O)(=O)N(c2ccc(Cl)cc2)C1=O	82 to 84 °C
O=C(O)C1=Cc2cc(Cl)cc(Cl)c2NC1C(F)(F)F (centres undefined)	223 to 226 °C
O=C(CCCCCNCC(O)c1ccccc1)OCc1ccccc1 (centres undefined)	77 to 78 °C
CCc1cc2c(c3c1[nH]c1ccc(O)cc13)C(=O)N(CCN(CC)CC)C2=O	188 to 189 °C
O=S(=O)(c1ccc(Cl)c(CBr)c1Cl)N1CCCC1	115 °C
O=C1NCCCN1C1(CO)CCN(Cc2ccccc2)CC1	210 °C
CCc1noc(C)c1-c1[nH]c2ccccc2c1CC(=O)N(C)C	176 to 178 °C
C#CCc1c(C)nc2c(OCc3ccccc3C)nccn12	123 to 124 °C
CC[C@H]1COC(=O)N1c1nc(-c2ccc(Br)cc2)c(Cl)s1	137 to 139 °C
C#Cc1nc(NOC)c2ncn([C@@H]3O[C@H](CO)[C@@H](O)[C@H]3O)c2n1	165 to 167 °C
CC(C)(C)OC(=O)NCCc1c[nH]c2ccc(CO)cc12	129 to 130 °C
Cc1ccc(NC(=O)c2cc(Br)c(Br)s2)cc1C	216 to 217 °C
OCc1c(CO)c(-c2ccc(Cl)cc2)n2c1Cc1ccccc1C2	170 to 171 °C
CC(C)S(=O)(=O)c1ccc(Oc2ccc(Cl)c(Cl)c2)nc1	91 to 92 °C
O=C1C=CC(=O)N1c1ccc(Cl)cc1	109 to 110 °C
N#Cc1cc(F)c(Cl)c(Br)c1Cl	110 to 112 °C

SMILES	melting point
CC(Cc1c[nH]c2ccccc12)(NC(=O)OC1C2CC3CC(C2)CC1C3)C(=O)c1ccccc1CCCC(=O)O (centres undefined)	123 to 137 °C
OC1(c2ccccc2Cc2ccccc2)CCC2(CC1)OCCO2	97 to 98 °C
Cc1cc(S(F)(F)(F)(F)F)ccc1C(=O)NC(=N)N	183 to 184 °C
O=C1Cc2cc(I)ccc2N1	190 to 192 °C
COc1cc(NC(=O)OC(C)(C)C)ccc1OCCCN1CCN(c2ccccc2)CC1	125 to 126 °C
CCCn1cc(Cc2ccc(C(=O)O)cc2OC)c2cc(CC3CCN(C)C3=O)ccc21 (centres undefined)	98 to 107 °C
COC(=O)c1ccc(-c2c(CC(=O)Nc3ccc(F)cc3C(F)(F)F)c(=O)oc3cc(Cl)c(C)cc23)cc1	202 to 204 °C
O=[N+]([O-])c1cnccc1Oc1ccc(Cl)cc1	93 to 94 °C
CCOC(=O)Nc1nc2c(c3c(CCNS(C)(=O)=O)n(C)nc13)CCCC2	214 to 215 °C
CCSc1cc(C#N)c(Cl)cn1	103 to 104 °C
O=[N+]([O-])c1cccc(CO)c1I	91 to 91.5 °C
CC=C1CC1C(=C1C(=O)OC(=O)C1c1cc(C)n(-c2ccccc2)c1C)C1CC1 (centres undefined)	145 °C
CCOCc1cnc2c(N)cccc2c1Cl	90 to 93 °C
O=C(OCC(F)(F)F)C(O)C(O)C(=O)OCC(F)(F)F (centres undefined)	77 to 79 °C
CC(=N)Nc1cccc(C(=N)N)c1	263 to 265 °C
CON=C1C=C(NC(=O)N(N)CCO)C(Cl)=C(C)C1Cl (centres undefined)	152 to 156 °C
COC(=O)C1C(c2ccccc2)C2(C(=O)OC)C(C)=NC1(C)CC2C[Si](C)(C)C (centres undefined)	152 to 155 °C
COc1ccc(CNc2nnc(N3CCC(CCO)CC3)c3ccc(Cl)cc23)cc1Cl	153 to 155 °C
CC(C)CN(CC(C)C)C(=O)c1c([N+](=O)[O-])cccc1[N+](=O)[O-]	97 to 99 °C
O=C(CCl)Nc1c(I)cc(I)c(C(=O)O)c1I	253 to 255 °C
COc1ccc(N2CCN(c3c(C)c(C)c4c(c3C)C(O)C(C)(C)O4)CC2)cc1OC (centres undefined)	150 to 151 °C
O=Cc1cc(F)cc2c1OCCC2	55 to 57 °C
CCCCc1nc2c(N)nc3ccc(OCc4ccccc4)cc3c2n1CCCCNC(=O)c1ccccc1	173 to 174 °C
COc1cc(C=O)c(OC)cc1C	83 °C
CCOC(=O)c1cc(CC)sc1Nc1cc(C)ccc1[N+](=O)[O-]	55 to 57 °C
CC(=O)NC1CCc2c(C(=O)O)[nH]c(C(=O)O)c2C1 (centres undefined)	233 to 235 °C

SMILES	melting point
Cn1cnc(S(=O)(=O)N2CCC3(CC2)CSC2=C(O3)c3ccccc3C(=O)C2=O)c1	256 to 257 °C
COc1c(N2CCNC(CF)(CF)C2)c(F)cc2c(=O)c(C(=O)O)cn(C3CC3F)c12 (centres undefined)	164 to 166 °C
COc1ccc(/C=C/C(=O)Nc2ccccc2C(=O)OCC(=O)OC(C)(C)C)cc1OC	116 to 118 °C
CCOc1ccc(-c2ccc3c(c2)C=C(C(=O)Nc2ccc(CN(C)C4CCC(=O)CC4)cc2)CCO3)cc1	146 to 148 °C
CCOc1ccc(-c2nc(C(O)c3ccc(OC)c(OC)c3)cs2)cc1OCC (centres undefined)	122 to 123 °C
NCc1cc(=O)[nH]c(=O)[nH]1	295 to 297 °C
Nc1cnc(Oc2ccc(Cl)c3c2CCCC3)c(Cl)c1	130 to 132 °C
CC1(C)Oc2cc3nonc3cc2C(NC(=O)CCl)C1O (centres undefined)	232 to 234 °C
COC(=O)c1cc(O)cc(C(=O)CS(C)=O)c1 (centres undefined)	144 to 150 °C
CCCN(CCC)C(=O)C(=NNc1ccccc1)C(C)=O	79 to 80 °C
CC(C)(CO)CCCNC(=O)NCCCC(C)(C)CO	81 to 82 °C
CNC(=O)C#Cc1ccccc1C	52 to 55 °C
COc1ccc2c(Oc3ccc(OCCN4CCCCC4)cc3)c(-c3cccc(O)c3)ccc2c1	170 to 171 °C
Cc1cccc(-c2nc(C(C)C)[nH]c2-c2ccc(F)c(-c3ccc(CC4CNCCO4)cc3)c2)n1 (centres undefined)	147 to 161 °C
CCCn1c(=O)c2c(NC)n(C(C)=O)nc2n(Cc2cccc(Cl)c2)c1=O	169 to 171 °C
CCCCOCCOc1ccc(-c2ccc(N3CCOCC3)c(C=CC(=O)O)c2)cc1	155 to 157 °C
Cc1cc(C)cc(C(=O)c2c(C(C)C)c(=O)[nH]c(=O)n2Cc2cc(F)nc(F)c2)c1	185 to 187 °C
O=C1CC(c2cccc(-n3ccnn3)c2)=Nc2cc(O)c(-c3ccccc3F)cc2N1	> 250 °C
CCN1CCC(NC(=O)c2ccc(NC(C)=O)cc2)N1CC (centres undefined)	178 to 180 °C
O=C(CCCCCBr)Nc1ccc(O)cc1F	66 to 69 °C
COc1cc2cnc(O)nc2cc1OC	260 to 263 °C
Cc1nc(C#N)nc(NCC(F)(F)F)c1I	103 to 105 °C
CS(=O)(=O)c1ccc(-c2ccccc2[N+](=O)[O-])cc1	178 °C
Fc1ccc(CNC(=S)N2CCc3c([nH]c4ccccc34)C2c2ccc3c(c2)OCO3)cc1 (centres undefined)	137 to 139 °C
CCC(CC)Nc1nc(C)nc(N2CCc3cc(OC)cc(Cl)c32)c1C#N	192 to 194 °C
C=C(C)c1ccc(C2COc3c(C)c(C)c(NC(=O)CC(C)(C)C)c(C)c32)cc1OC (centres undefined)	186 to 187 °C

SMILES	melting point
Cn1ncc2c(c1=O)SCCNC2Cc1ccc(Cl)cc1 (centres undefined)	106 to 109 °C
Nc1ccc(F)c(-c2ccc3ncccc3c2)c1F	178 to 179 °C
CC1(C)CC(OC(=O)NN)CC(C)(C)N1	93 to 94 °C
CC(=O)Nc1c(C(O)(C(F)(F)F)C(F)(F)F)ccc2ccccc12	155 to 156 °C
c1ccc(COc2ccc(OCC3CC3)cc2)cc1	96 °C
CCOC(=O)C(=CNC1CC1)C(=O)c1ccc(F)c(Cl)c1F	101 to 104 °C
CCOC(=O)c1sc2cccc(O)c2c1C	183 to 184 °C
O=[N+]([O-])c1ccc(-c2nc3ccc(F)cc3s2)cc1	201 to 202 °C
COC(=O)C1CC(O)CN1C(=O)c1ccc(OC)c(OC)c1 (centres undefined)	174 °C
CC(O)CN1N=CCCC1c1ccc(Cl)c(Cl)c1 (centres undefined)	75 to 77 °C
N[C@H]1CCCC[C@@H]1Nc1ccnc2cc(Cl)ccc12	160 °C
CCOC(=O)C(=O)CC(=O)c1cn(Cc2ccc(OC)cc2)c2ccccc2c1=O	154 to 156 °C
CCCc1c(C(=O)C(C)C)c2ccc(C(N)=O)cc2n1Cc1ccccc1Cl	85 to 86 °C
O=C1NC(=O)C2=C1c1c([nH]c3ccccc13)Cc1[nH]c3ccccc3c12	> 350 °C
O=C1Nc2ccccc2C1c1cc(Cl)ccc1O (centres undefined)	256 to 258 °C
O=C1CCC2(CCC(=O)c3cc(Cl)ccc32)C(=O)N1 (centres undefined)	282 to 284 °C
CCCNC(=O)CCCCCn1cnc2c(N)nc3ccccc3c21	128 to 130 °C
COC(=O)c1cn2c3c(c(N4CCCC4)c(F)cc3c1=O)CCN2C	203 to 206 °C
CC(=NOCCOc1ccc(CC2SC(=O)NC2=O)cc1)c1cccc(O)c1 (centres undefined)	133 to 135 °C
CC(C)CCSc1cc(C(=O)O)cc(S(=O)(=O)Cl)c1Oc1ccccc1	168 to 169 °C
FC(F)(F)COc1cc(-c2cc(C(F)(F)F)n3ncc(-c4ccncc4)c3n2)ccc1C(F)(F)F	251 °C
c1ccc(CN2CCN(c3cccc4cccnc34)CC2)cc1	116 to 118 °C
CC(C)(C)[Si](C)(C)Oc1ccc2cc3c(cc2c1)C(=O)c1cc2cc(O[Si](C)(C)C(C)(C)C)ccc2cc1C3=O	> 270 °C
COc1cccc(-c2ccc3c(c2)c(C(=O)C(=O)O)cn3Cc2ccc(C(C)(C)C)cc2)c1	86 to 87 °C
CCOC(=O)c1c(-c2ccccc2)csc1N1C(=O)c2ccccc2C1=O	163 to 164 °C
Nc1ccc(-c2cccnc2)c(C(F)(F)F)c1	92 to 93 °C

Reference: a melting point compilation (Tetko et al.; mined from patent text by program, amines drawn as free bases though some values may be those of a salt)
